Values of other authors in patent publication US20070077258A1 (priority 2005, published 2007).
Where two headings read alike, the source gives them in different places.

How the values were obtained:
[1] = test system: influenza virus in Madin-Darby Canine Kidney (MDCK) Cells
[2] = 3 grams of glutathione by oral ingestion
[3] = test system: influenza virus in Normal Human Small Airway Epithelial Cells (SAEC)

Compound: N[C@@H](CCC(=O)N[C@@H](CS)C(=O)NCC(=O)O)C(=O)O [glutathione, gamma-glutamyl-cysteinyl-glycine]
- replication of flu virus [1]: prevention of replication of flu virus was demonstrated
- effect on plasma glutathione levels [2]: does not elevate plasma glutathione levels
- replication of flu virus [3]: prevention of replication of flu virus was demonstrated
- tolerability (1500 mg /m2): well tolerated
- tolerability (2500 mg daily for 5 days): well tolerated
- toxicity reported (in vivo): No toxicity
